Test results published in article PMC9415646, “Improving Aqueous Solubility and In Vitro Pharmacokinetic Properties of the 3-Nitroimidazo[1,2-a]pyridine Antileishmanial Pharmacophore” (Pharmaceuticals, 2022).

Experiments:
[1] = Cytotoxicity evaluation on HepG2 cell line (MTT); assay type: cell-based; conditions: human, HepG2 cells
[2] = Cytotoxicity on THP-1 cell line (MTT); assay type: cell-based; conditions: human, THP-1 cells, THP1 cell line
Summary of the method: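 THP-1 cells exposed to compounds for 72 h at 37 °C, then MTT (0.5 mg/mL) for 2 h, absorbance at 570 nm. Viability expressed relative to DMSO-treated cells; CC50 is the mean of three independent experiments.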

[3] = Redox potential of the nitro group by cyclic voltammetry; assay type: physicochemical; conditions: cyclic voltammetry in DMSO, corrected versus NHE
Protocol: Voltammetric measurements were carried out with a potentiostat Autolab PGSTAT100 (ECO Chemie, Utrecht, The Netherlands) controlled by GPES 4.09 software (ECO Chemie, Utrecht, The Netherlands). Experiments were performed at room temperature in a homemade airtight three–electrode cell connected to a vacuum/argon line. The reference electrode consisted of a saturated calomel electrode (SCE) separated from the solution by a bridge compartment. The counter electrode was a platinum wire of 1 cm^2 apparent surface. The working electrode was a GC microdisk (1.0 mm in diameter–Bio-logic SAS). The supporting electrolyte (nBu4N)[PF6] (Fluka, 99% puriss electrochemical grade) and the solvent DMSO (Sigma-Aldrich puriss p.a. dried <0.02% water) were used as received and simply degassed under argon. The solutions used during electrochemical analyses were typically 10^−3 M in compound and 0.1 M in supporting electrolyte. Before each measurement, the solutions were degassed by bubbling Ar, and the working electrode was polished with a polishing machine (Presi P230, Eybens, France). Under the experimental conditions adopted in this work, the half-wave potential (E1/2) of the ferrocene Fc+/Fc couple in DMSO was E1/2 = 0.45 V vs. SCE. Experimental peak potentials were measured versus SCE and converted to NHE by adding 0.241 V.

[4] = Thermodynamic solubility at pH 7.4 (miniaturized shake-flask); assay type: physicochemical; conditions: pH 7.4, PBS, 24 h, 23 °C
Protocol: Thermodynamic solubility at pH 7.4 of compounds was determined according to a miniaturized shake-flask method (Organisation for Economic Cooperation and Development guideline n°105). Phosphate Buffer solutions (pH 7.4, […], ionic strength […]) were prepared from Na2HPO4, KH2PO4 and KCl (Sigma Aldrich, Saint Quentin Fallavier, France); 10 µL of 20 mM stock solution were added to 5 mL glass tubes containing […] buffer (n = 3). The tubes were briefly sonicated and shacked by inversion during 24 h at 23 °C. Then, the tube contents were placed in a microtube which was centrifuged at 12,225× g for 10 min; 100 µL supernatant were mixed with 100 µL acetonitrile in a Greiner UV microplate. Standard solutions were prepared extemporaneously, diluting 20 mM DMSO stock solutions at […]; 5 µL of each working solution were diluted with 995 µL buffer and 100 µL were then mixed in microplates with 100 µL acetonitrile so as to ensure that the final proportions of each solvent in standard solutions and samples remained unchanged. Solubility at pH 7.4 was determined with an Infinite M200Pro (Tecan, Lyon, France) microplate reader in spectrophotometric mode (230 to 450 nm) from the specific λmax of each compound. The calibration curve was obtained from the […] standard solutions of tested compounds at 0, 25, 50, and 100 µM in a 50:50 (vol/vol) mixture of buffer with acetonitrinile/DMSO (99:1; vol/vol). Calibration curves were linear with R^2 > 0.99.

[5] = Mouse microsomal stability; assay type: in vitro ADME; conditions: female, CD-1, pH 7.4; mouse liver microsomes; read-out: Mouse Microsomal Stability T1/2
Protocol: The tested product and propranolol, used as reference, were incubated in duplicate (reaction volume of 0.5 mL) with female mouse microsomes (CD-1, 20 mg/mL, BD Gentest™) at 37 °C in a 50 mM phosphate buffer, pH 7.4, in the presence of MgCl2 (5 mM), NADP (1 mM), glucose-6-phosphate dehydrogenase (0.4 U/mL) and glucose-6-phosphate (5 mM). […] After centrifugation at 10,000× g, 10 min, 4 °C, the supernatants were maintained at 4 °C for immediate analysis or placed at -80 °C for later analysis. Controls (t0 and tfinal) in triplicate were prepared by incubation of the internal standard with microsomes denatured by acetonitrile. […] The mobile phases were (A) ammonium acetate 10 mM and (B) acetonitrile with 0.1% formic acid. The injection volume was 1 µL and the flow rate 600 µL/min. […] Each compound was quantified by converting the average of the ratios of the analyte/internal standard surfaces to the percentage of product consumed. The ratio of the control at t0 corresponded to 0% of product consumed. The half-life (T1/2) of each compound in the presence of microsomes was calculated according to the equation: t1/2=ln(2)/k , where k is the first-order degradation constant (the slope of the logarithm of compound concentration versus incubation time). The intrinsic clearance in vitro (Clint expressed in μL/min/mg) is calculated according to the equation: Clint=dose/AUC∞/[microsomes] where “dose” is the initial concentration of product in the sample, AUC∞ is the area under the concentration-time curve extrapolated to infinity and [microsomes] is the microsome concentration expressed in mg/µL.

[6] = Parallel artificial membrane permeability assay (PAMPA); assay type: in vitro ADME

O=[N+]([O-])c1c(CS(=O)(=O)c2ccccc2)nc2c(Sc3ccc(Cl)cc3)cc(Cl)cn12 [Hit B, reference compound]
CC50 at 72 h [1]: > 100 µM
CC50 at 72 h [2]: > 62.5 µM
E0 (redox potential of the nitro group) [3]: −0.63 V
Thermodynamic Solubility at pH 7.4 in PBS [4]: 1.4 ± 0.5 µM
half-life [5]: 3 min
PAMPA GIT at pH 7.4 Pe [6]: 4.0 nm/s
Papp at 4 h, 100 µM ([6]; PAMPA, pH 7.4, read-out: PAMPA GIT at pH 7.4 Pe): 0.4 ± 0.06 ×10⁻⁶ cm/s
